Read-outs that look alike come from different tables or passages of the source.
Experiments:
[1] = target: T1, human creatine transporter (hCRT, SLC6A8) (Homo sapiens, UniProt P48029); test: cryo-EM structure; format: binding
T1 sequence (P48029 1-635): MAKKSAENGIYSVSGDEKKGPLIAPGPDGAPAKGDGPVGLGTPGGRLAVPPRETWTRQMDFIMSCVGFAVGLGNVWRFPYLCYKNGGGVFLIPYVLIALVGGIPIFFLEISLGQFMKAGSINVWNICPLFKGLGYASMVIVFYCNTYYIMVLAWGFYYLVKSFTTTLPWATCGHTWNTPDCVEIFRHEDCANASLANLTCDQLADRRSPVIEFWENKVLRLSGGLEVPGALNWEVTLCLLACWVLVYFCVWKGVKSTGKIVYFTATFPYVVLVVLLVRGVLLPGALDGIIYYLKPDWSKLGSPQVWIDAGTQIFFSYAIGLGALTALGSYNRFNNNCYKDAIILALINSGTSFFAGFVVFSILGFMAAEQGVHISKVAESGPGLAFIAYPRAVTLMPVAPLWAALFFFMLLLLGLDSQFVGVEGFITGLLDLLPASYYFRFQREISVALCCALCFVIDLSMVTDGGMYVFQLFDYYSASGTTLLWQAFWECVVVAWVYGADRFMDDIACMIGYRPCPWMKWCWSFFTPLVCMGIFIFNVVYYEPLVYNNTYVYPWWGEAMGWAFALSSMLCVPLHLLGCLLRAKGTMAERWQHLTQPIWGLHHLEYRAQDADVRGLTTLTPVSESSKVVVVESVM

[2] = target: T1, human creatine transporter (hCRT, SLC6A8); test: cryo-EM structure; format: binding; remark: listed apart in the source

Kd [1] [µM]	Kd [2] [µM]	SMILES
3.39		N=C(N)NCCC(=O)O [RGX202]
	3.2	CN(CC(=O)O)C(=N)N [creatine]

From publication PMC12435270 (Proceedings of the National Academy of Sciences of the …, 2025)
